Reference: PubChem BioAssay (NCI)
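Assay format: 96-well plates, 48-hour exposure. Here, GI50 denotes the concentration required for 50% inhibition of growth. At the TGI there is no net growth.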

How the values were obtained:
Assay in all cases: growth of human tumour cells (NCI), 48 h
NCI-H460 lung = tested on: NCI-H460 lung
CAKI-1 renal = tested on: CAKI-1 renal
HCT-15 colon = tested on: HCT-15 colon
SK-MEL-5 melanoma = tested on: SK-MEL-5 melanoma
OVCAR-3 ovarian = tested on: OVCAR-3 ovarian
NCI/ADR-RES ovarian = tested on: NCI/ADR-RES ovarian
NCI-H226 lung = tested on: NCI-H226 lung
NCI-H522 lung = tested on: NCI-H522 lung
SF-295 CNS = tested on: SF-295 CNS
SNB-75 CNS = tested on: SNB-75 CNS
A549 NSCLC = tested on: A549 NSCLC
UO-31 renal = tested on: UO-31 renal
M14 melanoma = tested on: M14 melanoma
SNB-19 CNS = tested on: SNB-19 CNS
EKVX NSCLC = tested on: EKVX NSCLC
OVCAR-5 ovarian = tested on: OVCAR-5 ovarian
ACHN renal = tested on: ACHN renal
SN12C renal = tested on: SN12C renal
SK-MEL-2 melanoma = tested on: SK-MEL-2 melanoma
SK-MEL-28 melanoma = tested on: SK-MEL-28 melanoma
UACC-62 melanoma = tested on: UACC-62 melanoma
UACC-257 melanoma = tested on: UACC-257 melanoma
MDA-MB-435 = tested on: MDA-MB-435
OVCAR-4 ovarian = tested on: OVCAR-4 ovarian
K-562 leukemia = tested on: K-562 leukemia
MDA-MB-231 breast = tested on: MDA-MB-231 breast
SK-OV-3 ovarian = tested on: SK-OV-3 ovarian
U251 CNS = tested on: U251 CNS
DU-145 prostate = tested on: DU-145 prostate
HOP-62 NSCLC = tested on: HOP-62 NSCLC
SF-539 CNS = tested on: SF-539 CNS
TK-10 renal = tested on: TK-10 renal
T-47D breast = tested on: T-47D breast
SF-268 CNS = tested on: SF-268 CNS
SW-620 colon = tested on: SW-620 colon
NCI-H23 lung = tested on: NCI-H23 lung
786-0 renal = tested on: 786-0 renal
RPMI-8226 leukemia = tested on: RPMI-8226 leukemia
SR leukemia = tested on: SR leukemia
HS 578T breast = tested on: HS 578T breast
HCT-116 colon = tested on: HCT-116 colon
COLO 205 colon = tested on: COLO 205 colon
MALME-3M melanoma = tested on: MALME-3M melanoma
A498 renal = tested on: A498 renal
KM12 colon = tested on: KM12 colon
MCF7 breast = tested on: MCF7 breast
PC-3 prostate = tested on: PC-3 prostate
OVCAR-8 ovarian = tested on: OVCAR-8 ovarian
HCC-2998 colon = tested on: HCC-2998 colon
CCRF-CEM leukemia = tested on: CCRF-CEM leukemia
HT29 colon = tested on: HT29 colon
LOX IMVI melanoma = tested on: LOX IMVI melanoma
BT-549 breast = tested on: BT-549 breast
IGROV1 ovarian = tested on: IGROV1 ovarian
HOP-92 NSCLC = tested on: HOP-92 NSCLC
RXF 393 renal = tested on: RXF 393 renal
HL-60(TB) leukemia = tested on: HL-60(TB) leukemia
MOLT-4 leukemia = tested on: MOLT-4 leukemia

## O=C(COc1cccc(/C=C2\CSc3ccccc3C2=O)c1)Nc1nccs1
NCI-H460 lung
  GI50: 10 µM
  TGI: 25.5 µM
CAKI-1 renal
  GI50: 1720 nM
  TGI: 6.33 µM
HCT-15 colon
  GI50: 2170 nM
  TGI: 5 µM
SK-MEL-5 melanoma
  GI50: 2380 nM
  TGI: 15.5 µM
OVCAR-3 ovarian
  GI50: 1620 nM
  TGI: 2.98 µM
NCI/ADR-RES ovarian
  GI50: 3200 nM
  TGI: 11 µM
NCI-H226 lung
  GI50: 13.1 µM
  TGI: 30.6 µM
NCI-H522 lung
  GI50: 1550 nM
  TGI: 3.27 µM
SF-295 CNS
  GI50: 2090 nM
  TGI: 3.59 µM
SNB-75 CNS
  GI50: 1130 nM
  TGI: 12.5 µM
A549 NSCLC
  GI50: 5.73 µM
  TGI: 18.3 µM
UO-31 renal
  GI50: 1290 nM
  TGI: 2.64 µM
M14 melanoma
  GI50: 1880 nM
  TGI: 4.06 µM
SNB-19 CNS
  GI50: 6.48 µM
  TGI: 19.6 µM
EKVX NSCLC
  GI50: 7.21 µM
  TGI: 20.5 µM
OVCAR-5 ovarian
  GI50: 3080 nM
  TGI: 15.5 µM
ACHN renal
  GI50: 2660 nM
  TGI: 7.96 µM
SN12C renal
  GI50: 1760 nM
  TGI: 4.46 µM
SK-MEL-2 melanoma
  GI50: 1220 nM
  TGI: 3.1 µM
SK-MEL-28 melanoma
  GI50: 3.75 µM
  TGI: 12.4 µM
UACC-62 melanoma
  GI50: 1480 nM
  TGI: 3.12 µM
UACC-257 melanoma
  GI50: 3020 nM
  TGI: 9.77 µM
MDA-MB-435
  GI50: 2020 nM
  TGI: 4.85 µM
OVCAR-4 ovarian
  GI50: 3.94 µM
  TGI: 19.4 µM
K-562 leukemia
  GI50: 2790 nM
  TGI: > 100 µM
MDA-MB-231 breast
  GI50: 5.46 µM
  TGI: 21.4 µM
SK-OV-3 ovarian
  GI50: 14.6 µM
  TGI: 27.7 µM
U251 CNS
  GI50: 1820 nM
  TGI: 3.21 µM
DU-145 prostate
  GI50: 1.94 µM
  TGI: 3.99 µM
HOP-62 NSCLC
  GI50: 11 µM
  TGI: 23.2 µM
SF-539 CNS
  GI50: 2400 nM
  TGI: 13.3 µM
TK-10 renal
  GI50: 2250 nM
  TGI: 4.89 µM
T-47D breast
  GI50: 5.33 µM
  TGI: 23.9 µM
SF-268 CNS
  GI50: 1.76 µM
  TGI: 3.35 µM
SW-620 colon
  GI50: 1950 nM
  TGI: 4.52 µM
NCI-H23 lung
  GI50: 1850 nM
  TGI: 8.79 µM
786-0 renal
  GI50: 3700 nM
  TGI: 13 µM
RPMI-8226 leukemia
  GI50: 653 nM
  TGI: 2790 nM
SR leukemia
  GI50: 557 nM
  TGI: 2440 nM
HS 578T breast
  GI50: 2790 nM
  TGI: 12.5 µM
HCT-116 colon
  GI50: 1600 nM
  TGI: 2.96 µM
COLO 205 colon
  GI50: 5.61 µM
  TGI: 18.9 µM
MALME-3M melanoma
  GI50: 1540 nM
  TGI: 3.11 µM
A498 renal
  GI50: 15.3 µM
  TGI: 28.9 µM
KM12 colon
  GI50: 1530 nM
  TGI: 2.86 µM
MCF7 breast
  GI50: 779 nM
  TGI: 3.54 µM
PC-3 prostate
  GI50: 1820 nM
  TGI: 4.24 µM
OVCAR-8 ovarian
  GI50: 3.08 µM
  TGI: 10.4 µM
HCC-2998 colon
  GI50: 1700 nM
  TGI: 3.13 µM
CCRF-CEM leukemia
  GI50: 1260 nM
  TGI: 4.06 µM
HT29 colon
  GI50: 1850 nM
  TGI: 3.43 µM
LOX IMVI melanoma
  GI50: 1580 nM
  TGI: 3.06 µM

## CC(=O)c1c(C)[nH]c(-c2nc3ccc(N4CCN(C)CC4)cc3[nH]2)c1-c1ccccc1
BT-549 breast
  GI50: 8.81 µM
  TGI: 29.8 µM
NCI-H460 lung
  GI50: 4.24 µM
  TGI: 31.4 µM
IGROV1 ovarian
  GI50: 1120 nM
  TGI: 14.4 µM
CAKI-1 renal
  GI50: 212 nM
  TGI: 12.8 µM
HCT-15 colon
  GI50: 719 nM
  TGI: 18.9 µM
SK-MEL-5 melanoma
  GI50: 1350 nM
  TGI: 10.4 µM
OVCAR-3 ovarian
  GI50: 1110 nM
  TGI: 15 µM
NCI/ADR-RES ovarian
  GI50: 2480 nM
  TGI: > 100 µM
NCI-H226 lung
  GI50: 1.93 µM
  TGI: 49.5 µM
NCI-H522 lung
  GI50: 258 nM
  TGI: 14.4 µM
SF-295 CNS
  GI50: 2070 nM
  TGI: 19.2 µM
SNB-75 CNS
  GI50: 41.6 nM
  TGI: 0.937 µM
A549 NSCLC
  GI50: 1.45 µM
  TGI: 22.5 µM
UO-31 renal
  GI50: 374 nM
  TGI: 11.8 µM
M14 melanoma
  GI50: 1100 nM
  TGI: 19.4 µM
SNB-19 CNS
  GI50: 3.03 µM
  TGI: > 100 µM
EKVX NSCLC
  GI50: 2.03 µM
  TGI: > 100 µM
OVCAR-5 ovarian
  GI50: 1120 nM
  TGI: 22.9 µM
ACHN renal
  GI50: 876 nM
  TGI: 12.3 µM
SN12C renal
  GI50: 2340 nM
  TGI: 23.2 µM
SK-MEL-2 melanoma
  GI50: 4020 nM
  TGI: 22.2 µM
SK-MEL-28 melanoma
  GI50: 3.38 µM
  TGI: 19.9 µM
HOP-92 NSCLC
  GI50: 585 nM
  TGI: 24.5 µM
UACC-62 melanoma
  GI50: 274 nM
  TGI: 12.7 µM
UACC-257 melanoma
  GI50: 1460 nM
  TGI: 17.9 µM
MDA-MB-435
  GI50: 505 nM
  TGI: 12.9 µM
OVCAR-4 ovarian
  GI50: 2.55 µM
  TGI: 43.2 µM
K-562 leukemia
  GI50: 779 nM
  TGI: > 100 µM
MDA-MB-231 breast
  GI50: 0.728 µM
  TGI: 22.8 µM
RXF 393 renal
  GI50: 2840 nM
  TGI: 16.1 µM
SK-OV-3 ovarian
  GI50: 0.97 µM
  TGI: > 100 µM
U251 CNS
  GI50: 3530 nM
  TGI: 72.6 µM
DU-145 prostate
  GI50: 10.2 µM
  TGI: 47 µM
HOP-62 NSCLC
  GI50: 1.01 µM
  TGI: 33.5 µM
SF-539 CNS
  GI50: 1470 nM
  TGI: 17.5 µM
TK-10 renal
  GI50: 604 nM
  TGI: 27.2 µM
T-47D breast
  GI50: 0.703 µM
  TGI: 36.1 µM
SF-268 CNS
  GI50: 5.24 µM
  TGI: 39.6 µM
SW-620 colon
  GI50: 3820 nM
  TGI: 24.8 µM
NCI-H23 lung
  GI50: 3020 nM
  TGI: 39.3 µM
HL-60(TB) leukemia
  GI50: 261 nM
  TGI: 12.7 µM
786-0 renal
  GI50: 1710 nM
  TGI: 20.5 µM
HS 578T breast
  GI50: 392 nM
  TGI: 17.2 µM
HCT-116 colon
  GI50: 1540 nM
  TGI: 17.2 µM
COLO 205 colon
  GI50: 0.52 µM
  TGI: 17.3 µM
MALME-3M melanoma
  GI50: 961 nM
  TGI: 12.7 µM
MOLT-4 leukemia
  GI50: 6.47 µM
  TGI: > 100 µM
A498 renal
  GI50: 0.522 µM
  TGI: 4.79 µM
KM12 colon
  GI50: 1840 nM
  TGI: 32.6 µM
MCF7 breast
  GI50: 266 nM
  TGI: 13.5 µM
PC-3 prostate
  GI50: 1040 nM
  TGI: > 100 µM
OVCAR-8 ovarian
  GI50: 3.08 µM
  TGI: > 100 µM
HCC-2998 colon
  GI50: 1540 nM
  TGI: 12.8 µM
CCRF-CEM leukemia
  GI50: 4690 nM
  TGI: > 100 µM
HT29 colon
  GI50: 437 nM
  TGI: 18.5 µM
LOX IMVI melanoma
  GI50: 546 nM
  TGI: 10.1 µM
